Read-outs that look alike come from different tables or passages of the source. Bridge positions count the residues as written; N and C are the ends. Peptide text beside a SMILES is read from it.
What was measured:
PD-L1 antibody = assay: Peptide antibody dissociation ELISA (PD-L1 antibody); assay type: binding; conditions: for pH 5.4: pH 7.2 EC 50 ratio: pH 5.4 vs pH 7.2; for pH 6.0: pH 7.2 EC 50 ratio: pH 6.0 vs pH 7.2
Method: (§1) To begin, peptides were immobilized on neutravidin coated and blocked wells. […] After binding at 4 degrees the plates were washed extensively as before. Next the peptides were incubated with either neutral or acidic pH buffers for approximately 30 minutes and then washed again. The specifically peptide bound antibodies were detected by either anti-mouse Fc or anti-mouse kappa chain HRP conjugated antibodies using standard TMB-based chromogenic ELISA procedures. The effects of pH upon affinity were determined by standard EC50 analysis of each of the distinct pH dilution series binding curves and comparison of their respective EC50 values.

[1] = tested on: anti-mouse CTLA-4 antibody (clone 9D9); assay: Peptide antibody dissociation ELISA (CTLA-4 antibody); assay type: binding; conditions: for pH responsiveness: FIG. 11A-11C legend, unoptimized peptide candidates
Method: as §1

[2] = pH 5.4, read-out: EC50 [M] pH 5.4
[3] = pH 6.0, read-out: EC50 [M] pH 6.0
[4] = pH 7.2, read-out: EC50 [M] pH 7.2

Compound	EC50 (PD-L1 antibody; [2]) [M]	pH 5.4: pH 7.2 EC 50 ratio (PD-L1 antibody)	EC50 (PD-L1 antibody; [3]) [M]	pH 6.0: pH 7.2 EC 50 ratio (PD-L1 antibody)	EC50 (PD-L1 antibody; [4]) [M]	EC50 [M] pH 7.2 ([1]; pH 7.2)	pH responsiveness [1]	EC50 [M] pH 7.2 (PD-L1 antibody; pH 7.2)
CC[C@H](C)[C@H](NC(=O)[C@H](Cc1c[nH]cn1)NC(=O)[C@H](Cc1ccc(O)cc1)NC(=O)[C@@H](NC(=O)[C@H](CO)NC(=O)[C@@H]1CCCN1C(=O)[C@H](Cc1ccc(O)cc1)NC(=O)[C@H](Cc1ccccc1)NC(=O)[C@H](CC(C)C)NC(=O)[C@@H](N)CCC(N)=O)[C@@H](C)O)C(=O)N[C@H](C(=O)N[C@@H](CC(=O)O)C(=O)O)[C@@H](C)CC [Peptide 20] (H-QLFYPSTYHIID-OH)	8.4e-10	6.7	2.1e-10	1.7	1.3e-10			
CSCC[C@H](NC(=O)CNC(=O)CN)C(=O)N[C@H]1CSSC[C@@H](C(=O)N[C@@H](CCC(N)=O)C(=O)O)NC(=O)[C@H](Cc2c[nH]c3ccccc23)NC(=O)[C@H](CC(N)=O)NC(=O)[C@H](CC(C)C)NC(=O)[C@H](CC(N)=O)NC(=O)[C@H](CO)NC(=O)[C@H](Cc2ccc(O)cc2)NC(=O)[C@H](Cc2ccccc2)NC(=O)[C@H](CC(C)C)NC(=O)[C@H](CCC(=O)O)NC(=O)[C@H](Cc2c[nH]cn2)NC1=O [Peptide 22] (H-GGMCHELFYSNLNWCQ-OH; disulfide 4-15)	3.5e-10	7.8	7e-11	1.5	4.5e-11			
CSCC[C@@H]1NC(=O)[C@H](CC(=O)O)NC(=O)[C@H](C(C)C)NC(=O)[C@@H](NC(=O)[C@H](Cc2c[nH]cn2)NC(=O)CNC(=O)CN)CSSC[C@@H](C(=O)N[C@@H](CCC(N)=O)C(=O)O)NC(=O)[C@H]([C@@H](C)O)NC(=O)[C@H](CCC(N)=O)NC(=O)[C@H](CCC(N)=O)NC(=O)[C@H](Cc2ccc(O)cc2)NC(=O)[C@H](Cc2ccccc2)NC(=O)[C@H](CC(=O)O)NC(=O)[C@H](C(C)C)NC1=O [Peptide 23] (H-GGHCVDMVDFYQQTCQ-OH; disulfide 4-15)	3.9e-09	12.9	1.3e-09	4.3	3e-10	Inactive		
CC(C)C[C@@H]1NC(=O)CNC(=O)[C@H](CO)NC(=O)[C@H](CCCCN)NC(=O)[C@H](CC(N)=O)NC(=O)[C@H](Cc2c[nH]cn2)NC(=O)[C@@H](NC(=O)CNC(=O)CN)CSSC[C@@H](C(=O)O)NC(=O)[C@H](Cc2ccc(O)cc2)NC(=O)[C@H](Cc2c[nH]cn2)NC(=O)[C@H](Cc2ccc(O)cc2)NC(=O)[C@H](Cc2ccccc2)NC1=O [Peptide 24] (H-GGCHNKSGLFYHYC-OH; disulfide 3-14)	1.3e-09	6.6	5.6e-10	2.8	2e-10			
CC(C)C[C@H](NC(=O)[C@H](CCC(=O)O)NC(=O)[C@H](CCC(=O)O)NC(=O)[C@H](Cc1ccc(O)cc1)NC(=O)[C@H](Cc1ccccc1)NC(=O)[C@H](Cc1ccc(O)cc1)NC(=O)[C@H](CC(C)C)NC(=O)[C@@H]1CCCN1C(=O)[C@H](CO)NC(=O)[C@@H](NC(=O)[C@@H](N)CCC(N)=O)C(C)C)C(=O)N[C@@H](C)C(=O)O [Peptide 27]			9e-10					
CC[C@H](C)[C@@H]1NC(=O)[C@H](CC(=O)O)NC(=O)[C@H](C(C)C)NC(=O)[C@H](CCC(N)=O)NC(=O)[C@@H]2CCCN2C(=O)[C@H](CCC(=O)O)NC(=O)[C@H](Cc2ccc(O)cc2)NC(=O)[C@H](Cc2ccccc2)NC(=O)[C@H]([C@@H](C)O)NC(=O)[C@H](CO)NC(=O)[C@@H](NC(=O)[C@H](CC(C)C)NC(=O)CNC(=O)CN)CSSC[C@@H](C(=O)N[C@@H](Cc2ccc(O)cc2)C(=O)O)NC1=O [Peptide 29] (H-GGLCSTFYEPQVDICY-OH; disulfide 4-15)	1.5e-09	6.5	4.9e-10	2.1	2.3e-10			
CC(C)[C@@H]1NC(=O)[C@@H](NC(=O)CNC(=O)CN)CSSC[C@@H](C(=O)O)NC(=O)[C@H](CC(=O)O)NC(=O)[C@@H]2CCCN2C(=O)[C@H](CCCNC(=N)N)NC(=O)[C@H](CCC(N)=O)NC(=O)[C@H](Cc2c[nH]cn2)NC(=O)[C@H](Cc2c[nH]cn2)NC(=O)[C@H](Cc2ccccc2)NC(=O)[C@H](Cc2ccccc2)NC(=O)[C@H](Cc2c[nH]cn2)NC1=O [Peptide 31]	1.5e-09		3.6e-10					
GGADCLLHDWDSACQI [Peptide 10, control in the PD-L1 antibody test]							significant pH responsiveness	Inactive
GGCFEEHEQLVFQTHC [Peptide 5]							significant pH responsiveness	
GGCILPGQHESQAIAC [Peptide 6]							significant pH responsiveness	
